Species on record: Rattus norvegicus
Assay: DrugMatrix - Regimen: Daily Repeat
Assay type: toxicity, organism-based, Sprague-Dawley
Set-up: regimen Daily Repeat, gender Male, age 6-8 weeks
Conditions: in vivo, po, route oral GAVAGE, vehicle .5 % CMC; for ABSOLUTE BASOPHIL / ABSOLUTE EOSINOPHIL / ABSOLUTE LYMPHOCYTE / ABSOLUTE MONOCYTE / ABSOLUTE SEGMENTED NEUTROPHIL / BASOPHIL / EOSINOPHIL / ERYTHROCYTE COUNT / HEMATOCRIT / HEMOGLOBIN / LEUKOCYTE COUNT / LYMPHOCYTE / MEAN CORPUSCULAR HEMOGLOBIN / MEAN CORPUSCULAR HEMOGLOBIN CONCENTRATION / MEAN CORPUSCULAR VOLUME / MONOCYTE / NEUTROPHIL / NUCLEATED RED BLOOD CELLS / PLATELET COUNT: tissue Blood; for ALANINE AMINOTRANSFERASE / ALBUMIN / ALKALINE PHOSPHATASE / ASPARTATE AMINOTRANSFERASE / BLOOD UREA NITROGEN / CARBON DIOXIDE / CHLORIDE / CHOLESTEROL / CREATINE PHOSPHOKINASE / CREATININE / GLUCOSE / LACTATE DEHYDROGENASE / LIPASE / PHOSPHORUS / POTASSIUM / SODIUM / TOTAL BILIRUBIN / TOTAL PROTEIN / URIC ACID: tissue Plasma
[1] = 0 mg/kg, 72 h, dose level Control, time 3 day
[2] = 0 mg/kg, 120 h, dose level Control, time 5 day
[3] = 250 mg/kg, 72 h, dose level High, time 3 day

## C#C[C@]1(O)CC[C@H]2[C@@H]3CCc4cc(OC)ccc4[C@H]3CC[C@@]21C [MESTRANOL]
[1]
  ABSOLUTE BASOPHIL: 0 CELLS/uL
  ABSOLUTE EOSINOPHIL: 0 CELLS/uL
  ABSOLUTE LYMPHOCYTE: 12269.67 CELLS/uL
  ABSOLUTE MONOCYTE: 160.33 CELLS/uL
  ABSOLUTE SEGMENTED NEUTROPHIL: 970 CELLS/uL
  BASOPHIL: 0%
  EOSINOPHIL: 0%
  ERYTHROCYTE COUNT: 5.76 x10E6/uL
  HEMATOCRIT: 36.57%
  HEMOGLOBIN: 14.22 G/DL
  LEUKOCYTE COUNT: 13.4 x10E3/uL
  LYMPHOCYTE: 91.67%
  MEAN CORPUSCULAR HEMOGLOBIN: 24.67 pg
  MEAN CORPUSCULAR HEMOGLOBIN CONCENTRATION: 38.85 G/DL
  MEAN CORPUSCULAR VOLUME: 63.52 fL
  MONOCYTE: 1.17%
  NEUTROPHIL: 7.17%
  NUCLEATED RED BLOOD CELLS: 0.33 /100WBC
  PLATELET COUNT: 1250.83 x10E3/uL
  ALANINE AMINOTRANSFERASE: 49.17 u/L
  ALBUMIN: 4.33 G/DL
  ALKALINE PHOSPHATASE: 378.5 u/L
  ASPARTATE AMINOTRANSFERASE: 82.17 u/L
  BLOOD UREA NITROGEN: 15 mg/dL
  CARBON DIOXIDE: 34.33 mmol/L
  CHLORIDE: 99.17 MEQ/L
  CHOLESTEROL: 71.17 mg/dL
  CREATINE PHOSPHOKINASE: 258.67 u/L
  CREATININE: 0.18 mg/dL
  GLUCOSE: 142.67 mg/dL
  LACTATE DEHYDROGENASE: 154.33 u/L
  LIPASE: 9 u/L
  PHOSPHORUS: 11.67 mg/dL
  POTASSIUM: 7.13 MEQ/L
  SODIUM: 142.22 MEQ/L
  TOTAL BILIRUBIN: 0.18 mg/dL
  TOTAL PROTEIN: 5.77 G/DL
  URIC ACID: 1.55 mg/dL
[2]
  ABSOLUTE BASOPHIL: 0 CELLS/uL
  ABSOLUTE EOSINOPHIL: 23.33 CELLS/uL
  ABSOLUTE LYMPHOCYTE: 14943.67 CELLS/uL
  ABSOLUTE MONOCYTE: 32 CELLS/uL
  ABSOLUTE SEGMENTED NEUTROPHIL: 1084.33 CELLS/uL
  BASOPHIL: 0%
  EOSINOPHIL: 0.17%
  ERYTHROCYTE COUNT: 5.71 x10E6/uL
  HEMATOCRIT: 35.28%
  HEMOGLOBIN: 14.27 G/DL
  LEUKOCYTE COUNT: 16.08 x10E3/uL
  LYMPHOCYTE: 93%
  MEAN CORPUSCULAR HEMOGLOBIN: 25.02 pg
  MEAN CORPUSCULAR HEMOGLOBIN CONCENTRATION: 40.43 G/DL
  MEAN CORPUSCULAR VOLUME: 61.82 fL
  MONOCYTE: 0.17%
  NEUTROPHIL: 6.67%
  NUCLEATED RED BLOOD CELLS: 0.33 /100WBC
  PLATELET COUNT: 1274 x10E3/uL
  ALANINE AMINOTRANSFERASE: 54.17 u/L
  ALBUMIN: 4.22 G/DL
  ALKALINE PHOSPHATASE: 373.17 u/L
  ASPARTATE AMINOTRANSFERASE: 81.83 u/L
  BLOOD UREA NITROGEN: 16.67 mg/dL
  CARBON DIOXIDE: 30.33 mmol/L
  CHLORIDE: 99 MEQ/L
  CHOLESTEROL: 71 mg/dL
  CREATINE PHOSPHOKINASE: 273.5 u/L
  CREATININE: 0.22 mg/dL
  GLUCOSE: 141.83 mg/dL
  LACTATE DEHYDROGENASE: 153.67 u/L
  LIPASE: 10.33 u/L
  PHOSPHORUS: 11.38 mg/dL
  POTASSIUM: 7.08 MEQ/L
  SODIUM: 142.75 MEQ/L
  TOTAL BILIRUBIN: 0.18 mg/dL
  TOTAL PROTEIN: 6.1 G/DL
  URIC ACID: 1.67 mg/dL
[3]
  ABSOLUTE BASOPHIL: 0 CELLS/uL
  ABSOLUTE EOSINOPHIL: 55.33 CELLS/uL
  ABSOLUTE LYMPHOCYTE: 13434.33 CELLS/uL
  ABSOLUTE MONOCYTE: 105 CELLS/uL
  ABSOLUTE SEGMENTED NEUTROPHIL: 1338.67 CELLS/uL
  BASOPHIL: 0%
  EOSINOPHIL: 0.33%
  ERYTHROCYTE COUNT: 5.62 x10E6/uL
  HEMATOCRIT: 34.97%
  HEMOGLOBIN: 13.77 G/DL
  LEUKOCYTE COUNT: 14.93 x10E3/uL
  LYMPHOCYTE: 89.67%
  MEAN CORPUSCULAR HEMOGLOBIN: 24.5 pg
  MEAN CORPUSCULAR HEMOGLOBIN CONCENTRATION: 39.37 G/DL
  MEAN CORPUSCULAR VOLUME: 62.23 fL
  MONOCYTE: 0.67%
  NEUTROPHIL: 9.33%
  NUCLEATED RED BLOOD CELLS: 0 /100WBC
  PLATELET COUNT: 1230 x10E3/uL
  ALANINE AMINOTRANSFERASE: 46.67 u/L
  ALBUMIN: 4.03 G/DL
  ALKALINE PHOSPHATASE: 693.33 u/L
  ASPARTATE AMINOTRANSFERASE: 67.67 u/L
  BLOOD UREA NITROGEN: 10.33 mg/dL
  CARBON DIOXIDE: 32 mmol/L
  CHLORIDE: 102.67 MEQ/L
  CHOLESTEROL: 11.33 mg/dL
  CREATINE PHOSPHOKINASE: 168.67 u/L
  CREATININE: 0.16 mg/dL
  GLUCOSE: 157 mg/dL
  LACTATE DEHYDROGENASE: 250.33 u/L
  LIPASE: 7.33 u/L
  PHOSPHORUS: 11.57 mg/dL
  POTASSIUM: 6.36 MEQ/L
  SODIUM: 145.73 MEQ/L
  TOTAL BILIRUBIN: 0.23 mg/dL
  TOTAL PROTEIN: 5.73 G/DL

From ChEMBL document CHEMBL3885881, “DrugMatrix”
